How the values were obtained:
[1] = system: PDX tumors (cholangiocarcinoma, pancreatic cancer, gastric cancer, endometrial cancer, uterine sarcoma); assay: Therapeutic effect of E7820 in patient-derived xenograft (PDX) mouse models and relationship with gene mutations (Example 1); format: in vivo, human patient-derived tumors in NOG mice
Method: In 30 cases of patient-derived xenograft (PDX) mouse models, the therapeutic effect of the cancer therapeutic E7820 that regulates splicing function and the presence or absence of various gene mutations were evaluated.
PDX model mice were prepared by transplanting 2-3 mm square PDX tumor fragments subcutaneously into the back of test animals and allowing them to grow. The test animals used were NOD.Cg-Prkdcscidll2rgtmlSug/ShiJic (NOG mice), female, and 6 weeks old or older. Tumor tissues from 30 patients, including 9 cases of cholangiocarcinoma, 9 cases of pancreatic cancer, 6 cases of gastric cancer, 3 cases of endometrial cancer, and 3 cases of uterine sarcoma, were used as tumor tissues. Grouping was performed when the average tumor volume of the experimental animals reached a size suitable for grouping (approximately 200 mm^3), with each group consisting of n=3-5 mice.
From the day of grouping, E7820 was administered orally at a dose of 100 mg/kg once daily to the 30 PDX model mice prepared in 1-1. Body weight and tumor volume were measured twice a week during the observation period from the day before drug administration and from the day drug administration started (day 0) to day 21. Tumor volume was measured by measuring the long and short diameters of the tumor using calipers and calculating the tumor volume according to the following formula. For animals with no detectable tumor, the tumor volume was set to 0.00 mm^3.
Tumor volume (mm^3)=½×long diameter (mm)×short diameter (mm)×short diameter (mm)
Whole exome sequencing (WES), one of the next-generation sequencing methods, was performed on genomic DNA extracted from the PDX using the NovaSeq 6000 system (Illumina), and mutation analysis was conducted.

[2] = system: DLD-1 cells (parental); assay: Growth inhibition of DLD-1 cells (parental), 12-day culture, photographed (Example 3); format: cell-based; settings: day 12
Method: (§1) DLD-1 cells (parental), DLD-1-BRCA2 KO (BRCA2 KO), or DLD-1-BRCA2 KO+BRCA2 WT (BRCA2 KO+WT) were seeded at 3×10^3 cells per well in a 6-well plate and incubated at 37 °C under 5% CO2. After removing the medium, a medium containing no drug, or containing 100 nM E7820, 1 μM E7820, 1 μM Indisulam (E7070), or 1 μM olaparib was added, and the cells were cultured at 37 °C under 5% CO2. The medium was replaced with fresh medium containing the same concentration of the drug on days 3, 6, and 9, with the day of drug addition being day 0. On day 12, the cells were photographed, and the sensitivity of the cells to each drug was evaluated.

[3] = system: DLD-1-BRCA2 KO (BRCA2 KO); assay: Growth inhibition of DLD-1-BRCA2 KO, 12-day culture, photographed (Example 3); format: cell-based; settings: 1 μM; day 12
Method: as §1

[4] = system: DLD-1-BRCA2 KO+BRCA2 WT (BRCA2 KO+WT); assay: Growth inhibition of DLD-1-BRCA2 KO+BRCA2 WT, 12-day culture, photographed (Example 3); format: cell-based; settings: 1 μM; day 12
Method: as §1

[5] = system: RBM39 (CAPERα); settings: mechanism of action; Non Patent Literature 1; cited from earlier work
[6] = system: γH2AX in wild-type DLD-1; assay: Induction of DNA double-strand breaks (γH2AX Western blotting) in wild-type DLD-1 (Example 4); format: cell-based; settings: 1 μM; 72 hours
Method: DLD-1 cells (parental), DLD-1-BRCA2 KO (BRCA2 KO), or DLD-1-BRCA2 KO+BRCA2 WT (BRCA2 KO+WT) were seeded at 1×10^6 cells per well in a 6-well plate and incubated at 37 °C under 5% CO2. After removing the medium, a medium containing no drug, or containing 1 μM E7820, 1 μM Indisulam (E7070), or 1 μM olaparib was added, and the cells were cultured at 37 °C under 5% CO2 for 72 hours. After removing the medium, the cells were washed with PBS, cooled on ice, and RIPA buffer (containing protease and phosphatase inhibitors, Proteintech) was added. The cells were collected using a cell scraper. The collected samples were incubated on ice for 30 minutes, then centrifuged at 12,000×g for 15 minutes at 4 °C to pellet the cell debris. The supernatant was transferred to a new microtube without touching the pellet to obtain the lysate. The obtained lysate was used for SDS-PAGE, membrane transfer, and Western blotting to evaluate the induction of DNA double-strand breaks. The antibodies used for Western blotting were Anti-phospho-Histone H2A.X (Ser139) Antibody (anti-yH2AX antibody, cat #05-636, Sigma-Aldrich) and GAPDH (14C10) Rabbit mAb (anti-GAPDH antibody, cat #2118, Cell Signaling Technology).

[7] = 100 mg/kg orally once daily, day 21, among 14 cases with tumor reduction
[8] = 100 mg/kg orally once daily, day 21, among 16 cases without tumor reduction

Row | Structure (SMILES) | number of cases with mutations in one or more of BRCA1, BRCA2, ATM, ATR, and BAP1 among the 14 cases with tumor reduction effect [1, 7] [cases] | percentage of cases with mutations in one or more of BRCA1, BRCA2, ATM, ATR, and BAP1 among the 14 cases with tumor reduction effect [1, 7] [%] | number of cases with mutations in one or more of the five genes among the 16 cases without tumor reduction effect [1, 8] [cases] | percentage of cases with mutations in one or more of the five genes among the 16 cases without tumor reduction effect [1, 8] [%] | PDX model mice in which the tumor volume on day 21 was smaller than on day 0 (tumor reduction effect) ([1]; 100 mg/kg orally once daily, day 21 vs day 0) | cases in which no tumor reduction effect was observed ([1]; 100 mg/kg orally once daily, day 21 vs day 0, 30 PDX models) [cases] | tumor reduction effect in model mouse transplanted with a tumor having a mutation in a homologous recombination repair-related gene ([1]; PDX model mouse, tumor with mutation in homologous recombination repair-related gene) | growth inhibitory effect ([2]; 100 nM) | growth inhibitory effect ([2]; 1 μM) | growth inhibitory effect [3] | induction of cell death [3] | remaining cells [3] | growth inhibitory effect [4] | growth of surviving cells [4] | promotion of the proteasomal degradation of RBM39 [5] | growth inhibitory effect ([2]; 1 pM (so in the source)) | γH2AX levels [6]
1 | Cc1ccc(NS(=O)(=O)c2cccc(C#N)c2)c2[nH]cc(C#N)c12 [E7820, N-(3-cyano-4-methyl-1H-indol-7-yl)-3-cyanobenzenesulfonamide] | 11 | 79 | 3 | 19 | 14 out of the 30 PDX model mice | 16 | high tumor reduction effect | no growth inhibitory effect was observed | no growth inhibitory effect was observed | significant growth inhibitory effects | induction of cell death were observed | almost no remaining cells | growth inhibitory effects were observed | the growth of surviving cells was observed | promotion of the proteasomal degradation of RBM39 |  | 
2 | NS(=O)(=O)c1ccc(S(=O)(=O)Nc2cccc3c(Cl)c[nH]c23)cc1 [Indisulam, N-(3-chloro-1H-indol-7-yl)-4-sulfamoylbenzenesulfonamide] |  |  |  |  |  |  |  |  |  | significant growth inhibitory effects | induction of cell death were observed | almost no remaining cells | growth inhibitory effects were observed | the growth of surviving cells was observed | promotion of the proteasomal degradation of RBM39 | no growth inhibitory effect was observed | 
3 | Nc1ccc(S(=O)(=O)Nc2cnc3c(Cl)cccc3n2)cc1 [NSC339004, 4-amino-N-(5-chloroquinoxalin-2-yl)benzenesulfonamide] |  |  |  |  |  |  |  |  |  |  |  |  |  |  | promotion of the proteasomal degradation of RBM39 |  | 
4 | O=C(c1cc(Cc2n[nH]c(=O)c3ccccc23)ccc1F)N1CCN(C(=O)C2CC2)CC1 [olaparib] |  |  |  |  |  |  |  |  | no growth inhibitory effect was observed | significant growth inhibitory effects | induction of cell death were observed | almost no remaining cells | growth inhibitory effects were observed | the growth of surviving cells was observed |  |  | increase in γH2AX levels
